Tested on: HiF1α
Test: Western blot analysis
Assay type: cell-based, human
Conditions: MCF7/TGL and MDA-MB-231/TGL cells; 250 ppm CO for 16 hours vs standard incubator
Method: 1.5 × 10^6 cells were seeded in 6-cm cell culture plates with DMEM containing 10% FBS, 0.2 mM L-glutamine and 1% penicillin/streptomycin. Additionally, MCF7/TGL/pQ was cultured in media containing 0.5 µgml^-1 puromycin and 25 mM HEPES. After 16 hours of incubation, cells were lysed with RIPA buffer (0.1% SDS, 1% TritonX-100, 0.5% sodium deoxycholate, 25 mM Tris pH 8.0, 150 mM NaCl, and 1 mM EDTA) supplemented with a protease inhibitor mixture and PhosSTOP (Roche, Basel, Switzerland). Proteins were quantified with Bradford assay (Bio-Rad, Hercules CA). Equal amounts of proteins were separated with SDS-PAGE and transferred to nitrocellulose membranes. […] Protein bands were visualized by enhanced chemical luminescence (Pierce, Dallas, TX).
To investigate whether 250 ppm CO induces hypoxia, HiF1α protein levels in low-dose CO-treated MCF7/TGL and MDA-MB-231/TGL cells were examined. […] To assess the intracellular heme levels affected by low-dose CO treatment, oxidized heme levels in the form of hemin (Fe^3+ state) were measured because free heme (Fe^2+ state) is readily oxidized and cannot be measured. […]

In the case of `[C-]#[O+]` [CO, Carbon monoxide], the HiF1α protein levels is reported as “not changed”.

— US20230346831A1, “METHODS FOR TREATING […] USING LOW DOSE CARBON MONOXIDE” (priority 2020, published 2023)
